According to US20250288573A1 (H. LEE MOFFITT CANCER CENTER AND RESEARCH INSTITUTE, INC., priority 2018, published 2025):
Like-named read-outs stand apart in the source and are kept apart here.

Experiments:
cereblon = molecular target: T1, cereblon (Mus musculus, UniProt Q8C7D2); test: Western blot of cereblon in splenic T cells / splenocytes of mice treated orally with a single dose; format: in vivo; conditions: for cereblon levels in purified splenic T cells: single oral dose of 75 mg/kg
T1 construct: from tissue; host or cells: spleen: purified splenic T cells and total splenocytes of treated mice
T1 sequence (Q8C7D2 1-445): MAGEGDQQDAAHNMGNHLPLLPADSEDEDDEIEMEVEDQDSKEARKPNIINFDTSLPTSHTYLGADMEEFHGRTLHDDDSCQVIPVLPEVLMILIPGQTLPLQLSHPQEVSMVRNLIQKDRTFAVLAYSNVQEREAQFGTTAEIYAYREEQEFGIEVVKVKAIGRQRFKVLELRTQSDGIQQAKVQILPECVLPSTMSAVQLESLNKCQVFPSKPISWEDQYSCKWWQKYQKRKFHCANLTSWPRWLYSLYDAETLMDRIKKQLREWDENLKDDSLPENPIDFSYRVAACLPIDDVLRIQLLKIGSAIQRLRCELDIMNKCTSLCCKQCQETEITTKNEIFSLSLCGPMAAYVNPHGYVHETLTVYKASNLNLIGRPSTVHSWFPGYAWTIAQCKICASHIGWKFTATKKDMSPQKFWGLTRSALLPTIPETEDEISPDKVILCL
Protocol: FIG. 24 is a graph of results from Western blots from purified splenic T cells of mice treated orally with a single dose of 75 mg/kg SM2-145. Three mice were obtained from each time point (1, 6, 12, and 24 hrs) after treatment.
FIG. 25 contains a Western blot analysis of purified T cells from mice treated orally with a single dose of 75 mg/kg EC2-035 and EC2-134.

CRBN = molecular target: T2, CRBN (Homo sapiens, UniProt Q96SW2); test: Western blot for expression of CRBN relative to vinculin in human T cells (CRBN degradation); format: cell-based; conditions: for remaining activity at 10 µM / remaining activity at 0.01 µM: read-out: Relative Density of CRBN (% of DMSO); for remaining activity at 0.01 µM: 10nM
T2 construct: endogenous in cells; host or cells: primary human T cells / CD8+ T cells from peripheral blood
T2 sequence (Q96SW2 whole entry): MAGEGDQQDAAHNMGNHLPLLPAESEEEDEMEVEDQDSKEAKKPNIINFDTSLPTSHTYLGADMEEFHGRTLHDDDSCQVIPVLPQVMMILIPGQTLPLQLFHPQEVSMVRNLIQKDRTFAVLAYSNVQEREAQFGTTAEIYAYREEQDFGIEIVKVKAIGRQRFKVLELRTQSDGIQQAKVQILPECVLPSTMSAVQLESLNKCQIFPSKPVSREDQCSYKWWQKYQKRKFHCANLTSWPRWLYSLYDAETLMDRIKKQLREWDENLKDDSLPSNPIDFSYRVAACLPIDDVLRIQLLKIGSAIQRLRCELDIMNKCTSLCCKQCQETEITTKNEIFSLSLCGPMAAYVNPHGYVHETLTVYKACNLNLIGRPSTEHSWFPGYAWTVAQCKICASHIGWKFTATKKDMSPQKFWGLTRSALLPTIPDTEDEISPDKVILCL
From the text: Bortez=bortezomib; MG132=proteasome inhibitor; MLN4924=NEDD8 inhibitor.
This assay is a standard Western blot assay for expression of CRBN relative to vinculin.
[…] 0.1 percent DMSO was used as a vehicle control.

cereblon (CRBN) [1] = molecular target: T3, cereblon (CRBN) (Homo sapiens, UniProt Q96SW2); test: Kd and % inhibition from FI; format: binding; conditions: for inhibition at 200 µM: read-out: % inhibition @ 200 uM from *FI
T3 sequence (Q96SW2 whole entry, species assumed): as the sequence (Q96SW2 whole entry) above

cereblon (CRBN) [2] = molecular target: T3, cereblon (CRBN); test: Kd from ITC; format: binding
BRD4 = molecular target: T4, BRD4 (Mus musculus, UniProt Q9ESU6); test: Western blot of BRD4 in activated mouse T cells; format: cell-based; conditions: for BRD4 expression / degradation: mouse T cells activated with anti-CD3ε/anti-CD28
T4 construct: endogenous in cells
From the text: (§1) On the right is a schematic diagram of CRBN/DDB1/CUL4A and ubiquitin degrading function. […] DMSO was used in these experiments as a vehicle control. […] CRBN is shown for human T cells and vinculin loading control of human and mouse T cells are provided. […] Results shown are representative of three independent experiments.

c-Myc = test: Western blot of c-Myc in activated human T cells; format: cell-based; conditions: human T cells activated by anti-CD3ε/anti-CD28
From the text: as §1

Ikaros = molecular target: T5, Ikaros (Homo sapiens, UniProt Q13422); test: Ikaros degradation in isolated human CD8+ T cells; format: cell-based; conditions: increasing doses
T5 construct: This molecule has a DC50 for Ikaros at 10 μM and for CRBN at <1 μM; endogenous in cells; host or cells: isolated human CD8+ T cells
T5 sequence (Q13422 whole entry): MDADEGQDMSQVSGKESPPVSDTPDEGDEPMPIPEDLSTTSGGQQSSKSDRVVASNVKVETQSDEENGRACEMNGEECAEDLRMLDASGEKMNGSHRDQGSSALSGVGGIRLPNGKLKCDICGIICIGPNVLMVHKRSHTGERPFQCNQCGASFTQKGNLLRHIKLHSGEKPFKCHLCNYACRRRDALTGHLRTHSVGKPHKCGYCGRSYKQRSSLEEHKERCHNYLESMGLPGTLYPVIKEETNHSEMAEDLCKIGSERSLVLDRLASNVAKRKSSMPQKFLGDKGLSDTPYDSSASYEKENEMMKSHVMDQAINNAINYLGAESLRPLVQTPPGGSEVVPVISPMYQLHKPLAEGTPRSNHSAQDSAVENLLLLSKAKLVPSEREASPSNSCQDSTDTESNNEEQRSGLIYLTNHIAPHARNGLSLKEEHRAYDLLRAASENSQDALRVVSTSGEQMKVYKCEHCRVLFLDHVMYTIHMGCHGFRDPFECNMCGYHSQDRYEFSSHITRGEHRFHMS
Protocol: Isolated human CD8+ T cells were treated with increasing doses of EC1-168. This molecule has a DC50 for Ikaros at 10 μM and for CRBN at <1 μM. Unique functional properties may be afforded to the CDM compounds via distinct protein recruitment.
Isolated human CD8+ T cells were treated with increasing doses of EC2-134. This molecule has a DC50 for Ikaros at 10 nM and for CRBN at 100 μM. Unique functional properties may be afforded to the CDM compounds via distinct protein recruitment.

IKZF1 = test: Western blot of IKZF1 (Ikaros) in T cells and multiple myeloma cells; format: cell-based
[3] = tested on: T cells expanded from patients with melanoma; test: Cytokine assays (IL-2, IFN-γ) in T cells expanded from patients with melanoma; format: cell-based, human
From the text: Veh=vehicle-treated cells DMSO 0.1%

cereblon (CRBN) [4] = molecular target: T6, cereblon (CRBN) (Mus musculus, UniProt Q8C7D2); test: Western blot of cereblon (CRBN) levels in mouse CD8+ T cells; format: cell-based; conditions: 24 hours of treatment
T6 construct: endogenous in cells; host or cells: mouse CD8+ T cells
T6 sequence (Q8C7D2 1-445): T1 sequence (Q8C7D2 1-445)

[5] = FI, read-out: Kd (FI) (converted)
[6] = single oral dose of 12.5, 25, and 75 mg/kg

| remaining activity at 10 µM (CRBN) [%] | remaining activity at 0.01 µM (CRBN; 24 h, human T cells, 24 hours) [%] | Kd (cereblon (CRBN) [1]; [5]) [µM] | inhibition at 200 µM (cereblon (CRBN) [1]) [%] | SMILES | further results |
| --- | --- | --- | --- | --- | --- |
| 99.7 | 2.32 |  |  | O=C1CCC(N2Cc3c(NCc4ccc(CNc5cccc6c5CN(C5CCC(=O)NC5=O)C6=O)cc4)cccc3C2=O)C(=O)N1 (stereo not shown) [EC2-035, 3,3′-(((1,4-Phenylenebis(methylene))bis(azanediyl))bis(1-oxoisoindoline-4,2-diyl))bis(piperidine-2,6-dione)] | cereblon levels in purified splenic T cells (cereblon): sustained reduction in cereblon levels at 6, 9 and 12 hours |
| 13.8 | 4 |  |  | O=C1CCC(N2C(=O)c3cccc(NCc4ccc(CNc5cccc6c5C(=O)N(C5CCC(=O)NC5=O)C6=O)cc4)c3C2=O)C(=O)N1 (stereo not shown) [EC2-134] | cereblon levels in purified splenic T cells (cereblon): sustained reduction in cereblon levels at 6, 9 and 12 hours; cereblon levels in purified T cells (cereblon; [6]): inverse dose dependent levels of cereblon; cereblon levels in total splenocytes (cereblon; [6]): inverse dose dependent levels of cereblon; cereblon levels in purified T cells at the lowest dose (cereblon; single oral dose, lowest dose (12.5 mg/kg), compared with Crbn-/- T cells): significantly reduced; DC50 (CRBN; isolated human CD8+ T cells, increasing doses, read-out: DC50 for CRBN): 100 µM; DC50 (Ikaros): 0.01 µM |
| 28.2 | 133 | 15.5 ± 2.26 | 47.9 ± 2 | O=C1CCC(N2Cc3c(NC(=O)CCCCCCCCC(=O)Nc4cccc5c4CN(C4CCC(=O)NC4=O)C5=O)cccc3C2=O)C(=O)N1 (stereo not shown) [EC1-152, N^1,N^10-Bis(2-(2,6-dioxopiperidin-3-yl)-1-oxoisoindolin-4-yl)decanediamide] |  |
| 4.91 | 30.5 |  | 18 ± 20 | O=C1CCC(N2C(=O)c3cccc(NC(=O)CCCCCC(=O)Nc4cccc5c4C(=O)N(C4CCC(=O)NC4=O)C5=O)c3C2=O)C(=O)N1 (stereo not shown) [EC1-119, N^1,N^7-bis(2-(2,6-Dioxopiperidin-3-yl)-1,3-dioxoisoindolin-4-yl)heptanediamide] |  |
| 36.5 | 134 |  |  | O=C1CCC(N2C(=O)c3cccc(NC(=O)[C@H]4CC[C@H](C(=O)Nc5cccc6c5C(=O)N(C5CCC(=O)NC5=O)C6=O)CC4)c3C2=O)C(=O)N1 (stereo partly drawn) [EC1-135, (trans)-N^1,N^4-bis(2-(2,6-Dioxopiperidin-3-yl)-1,3-dioxoisoindolin-4-yl)cyclohexane-1,4-dicarboxamide] | % inhibition @ 200 uM from *FI (cereblon (CRBN) [1]; 200 uM): n.b. |

Second part, the compound before the results:

| SMILES | remaining activity at 10 µM (CRBN) [%] | remaining activity at 0.01 µM (CRBN; 24 h, human T cells, 24 hours) [%] | Kd (cereblon (CRBN) [1]; [5]) [µM] | inhibition at 200 µM (cereblon (CRBN) [1]) [%] | further results |
| --- | --- | --- | --- | --- | --- |
| O=C1CCC(N2Cc3c(CCCOCCCc4cccc5c4CN(C4CCC(=O)NC4=O)C5=O)cccc3C2=O)C(=O)N1 (stereo not shown) [SM2-144, 3,3′-((Oxybis(propane-3,1-diyl))bis(1-oxoisoindoline-4,2-diyl))bis(piperidine-2,6-dione)] | 3.05 | 24.1 | 5.88 | 73.9 ± 14.9 | Kd (cereblon (CRBN) [2]): 4.4 ± 1.4 µM |
| Cc1sc2c(c1C)C(c1ccc(Cl)cc1)=N[C@@H](CC(=O)NCCCCNC(=O)COc1cccc3c1C(=O)N(C1CCC(=O)NC1=O)C3=O)c1nnc(C)n1-2 (stereo partly shown) [dBET1] |  |  |  |  | BRD4 expression / degradation (BRD4): degrades BRD4; c-Myc suppression (c-Myc): Suppression of c-Myc is evident |
| O=C(COc1cccc2c1C(=O)N(C1CCC(=O)NC1=O)C2=O)NCCOCCOCCNC(=O)COc1cccc2c1C(=O)N(C1CCC(=O)NC1=O)C2=O (stereo not shown) [SM2-048] | 15.8 | 99.5 | 11.3 | 68.2 ± 3.33 | Kd (cereblon (CRBN) [2]): 12.3 ± 0.4 µM; CRBN expression (Western blot) (CRBN; anti-CD3/anti-CD28 stimulated human T cells, 0.1, 1, and 10 μM): significant reduction in CRBN expression |
| Nc1cccc2c1C(=O)N(C1CCC(=O)NC1=O)C2=O (stereo not shown) [pomolidomide] |  |  |  |  | BRD4 expression / degradation (BRD4): failed to reduce BRD4 expression; effect on dBET1-induced BRD4 degradation (BRD4; mouse T cells, Pom 0.5 μM with dBET1): reversed the degradation observed through dBET1; IKZF1 expression (IKZF1): decreased |
| O=C(CCc1cccc2c1CN(C1CCC(=O)NC1=O)C2=O)NCCOCCOCCOCCNC(=O)CCc1cccc2c1CN(C1CCC(=O)NC1=O)C2=O (stereo not shown) [SM3-011, N,N′-(((Oxybis(ethane-2,1-diyl))bis(oxy))bis(ethane-2,1-diyl))bis(3-(2-(2,6-dioxopiperidin-3-yl)-1-oxoisoindolin-4-yl)propanamide)] | 85.4 | 102 | 14.8 ± 1.08 | 73.39 ± 0.71 |  |
| Cc1sc2c(c1C)C(c1ccc(Cl)cc1)=N[C@@H](CC(=O)OC(C)(C)C)c1nnc(C)n1-2 [JQ1] |  |  |  |  | c-Myc suppression (c-Myc): Suppression of c-Myc is evident |
| O=C1CCC(N2Cc3c(NC(=O)CCCCCCC(=O)Nc4cccc5c4CN(C4CCC(=O)NC4=O)C5=O)cccc3C2=O)C(=O)N1 (stereo not shown) [EC1-150, N^1,N^8-Bis(2-(2,6-dioxopiperidin-3-yl)-1-oxoisoindolin-4-yl)octanediamide] | 6.33 | 99.3 | 18.3 ± 1.54 | 57.2 ± 10 |  |
| O=C1CCC(NC(=O)CCCCCCCCC(=O)NC2CCC(=O)NC2=O)C(=O)N1 (stereo not shown) [XS01-039, N^1,N^10-Bis(2,6-dioxopiperidin-3-yl)decanediamide] | 0.98 | 61.3 |  |  | Kd (cereblon (CRBN) [1]; cell does not state FI or ITC, read-out: Kd (A) FI/ITC): 161 ± 19.3 µM; remaining activity at 0.01 µM (CRBN; B2): 92.9%; remaining activity at 10 µM (CRBN; B2): 13.1% |
| O=C(CCc1cccc2c1CN(C1CCC(=O)NC1=O)C2=O)NCCOCCNC(=O)CCc1cccc2c1CN(C1CCC(=O)NC1=O)C2=O (stereo not shown) [SM3-010, N,N′-(Oxybis(ethane-2,1-diyl))bis(3-(2-(2,6-dioxopiperidin-3-yl)-1-oxoisoindolin-4-yl)propanamide)] | 86.9 | 119 | 14.3 ± 0.52 | 72.4 ± 0.84 |  |
| Cc1nc2cccc(N)c2c(=O)n1C1CCC(=O)NC1=O (stereo not shown) [CC122, avadomide, reference compound] |  |  |  |  | T cell function (IL-2 and IFN-γ after anti-CD3 (OKT3) activation) [3]: actively increasing T cell function |
| O=C(COc1cccc2c1C(=O)N(C1CCC(=O)NC1=O)C2=O)NCCCOCCCNC(=O)COc1cccc2c1C(=O)N(C1CCC(=O)NC1=O)C2=O (stereo not shown) [SM2-126] | 13.2 | 136 | 13.7 ± 0.7 | 88.9 ± 1.54 |  |
| COCCOCCCc1cccc2c1CN(C1CCC(=O)NC1=O)C2=O (stereo not shown) [SM3-095, 3-(4-(3-(2-Methoxyethoxy)propyl)-1-oxoisoindolin-2-yl)piperidine-2,6-dione] |  |  |  |  | cereblon (CRBN) levels (Western blot) (cereblon (CRBN) [4]): not |
